Experimental data: patent EP2411506B1, “TUMOR SUPPRESSION USING HUMAN PLACENTA-DERIVED INTERMEDIATE NATURAL KILLER CELLS AND IMMUNOMODULATORY COMPOUNDS” (Celularity, Inc., priority 2009, dated 2010)

Columns and labels:
[1] = system: day 21 cultivated placental NK cells; assay: ELISA of perforin and granzyme B secretion from treated NK cells; type: cell-based, human; conditions: treated day 21 cultivated placental NK cells compared to controls
Description: In a separate experiment, secretion of perforin and granzyme B from pomalidomide- or lenalidomide-treated day 21 cultivated placental NK cells was evaluated by ELISA.

NK cells = assay: Flow cytometry of GZMB-positive NK cells after pomalidomide treatment; type: cell-based, human; conditions: increase vs untreated
cultured PINK cells = assay: qRT-PCR gene expression analysis of lenalidomide- and pomalidomide-treated cultured PINK cells; type: cell-based, human; conditions: for expression of GM-CSF, increase: treated PINK cells vs untreated
Description: RNA isolation and purification.
Quantitative real-time (qRT-PCR) analysis.

placental NK cells = assay: Luminex (Five-Plex Antibody Kit) of GM-CSF and TNF-α secretion from treated NK cells; conditions: treated cultured NK cells compared to controls
Description: Secretion of GM-CSF and TNF-α was evaluated by Luminex utilizing a Five-Plex Antibody Kit.

[2] = treated vs untreated cultured PINK cells (Veh = 1)
[3] = treated vs untreated cultured PINK cells (Veh = 1.01)

| SMILES | increase in granzyme B secretion [1] | increase in perforin secretion [1] | expression of GM-CSF, increase (cultured PINK cells; qRT-PCR) | Fold change of gene expression: BAX (cultured PINK cells; [2]) | Fold change of gene expression: CCL5 (cultured PINK cells; [2]) | Fold change of gene expression: CCR5 (cultured PINK cells; [2]) | Fold change of gene expression: CD8A (cultured PINK cells; [2]) | Fold change of gene expression: CD68 (cultured PINK cells; [2]) | Fold change of gene expression: CSF2 (cultured PINK cells; [2]) | Fold change of gene expression: FAS (cultured PINK cells; [2]) | Fold change of gene expression: GUSB (cultured PINK cells; [2]) | Fold change of gene expression: IL2RA (cultured PINK cells; [2]) | increase in GM-CSF secretion (placental NK cells) | increase in TNF-α secretion (placental NK cells) | further results |
| --- | --- | --- | --- | --- | --- | --- | --- | --- | --- | --- | --- | --- | --- | --- | --- |
| Nc1cccc2c1C(=O)N(C1CCC(=O)NC1=O)C2=O (racemic) [pomalidomide, 4-amino-2-[(3RS)-2,6-dioxopiperidin-3-yl)-1H-isoindole-1,3(2H)-dione] | 69% | 121% | 396% ± 0.3% | 2.23 | 1.78 | 0.68 | 2.39 | 8.74 | 3.96 | 1.34 | 1.76 | 1.58 | 357% | 147% | increased percentage of GZMB-positive NK cells (NK cells): 25%; increased granzyme B (GZMB) gene expression (cultured PINK cells; increase vs untreated, qRT-PCR): 60% ± 1.7%; Fold change of gene expression: ACTB (cultured PINK cells; [2]): 0.77; Fold change of gene expression: CCL2 (cultured PINK cells; [2]): 5.46; Fold change of gene expression: CCL3 (cultured PINK cells; [2]): 2.2; Fold change of gene expression: CD80 (cultured PINK cells; [2]): 1.59; Fold change of gene expression: CSF1 (cultured PINK cells; [2]): 1.41; Fold change of gene expression: ECE1 (cultured PINK cells; [2]): 1.56; Fold change of gene expression: GZMB (cultured PINK cells; [2]): 1.59; Fold change of gene expression: IL8 (cultured PINK cells; [2]): 1.62; Fold change of gene expression: LTA (cultured PINK cells; [2]): 2.88; Fold change of gene expression: PRF1 (cultured PINK cells; [2]): 1.17; Fold change of gene expression: PTGS2 (cultured PINK cells; [2]): 1.68; Fold change of gene expression: SKI (cultured PINK cells; [2]): 1.96; Fold change of gene expression: GNLY (cultured PINK cells; [3]): 1.96; Fold change of gene expression: IL1A (cultured PINK cells; [3]): 2.61; Fold change of gene expression: TBX21 (cultured PINK cells; [3]): 2.05; Fold change of gene expression: IL10 (cultured PINK cells; treated vs untreated cultured PINK cells (Veh = 1.02)): 1.52 |
| Nc1cccc2c1CN(C1CCC(=O)NC1=O)C2=O (centres unmarked) [lenalidomide, 3-(4'aminoisoindoline-1'-one)-1-piperidine-2,6-dione] | 113% | 86% | 232% ± 1.6% | 1.39 | 1.24 | 0.9 | 1.3 | 4.04 | 2.32 | 1.11 | 1.13 | 1.26 | 166% | 76% | Fold change of gene expression: TNFRSF18 (cultured PINK cells; [2]): 0.7 |
